Experimental findings from patent US20040063949A1, “Compounds” (priority 2001, published 2004) are described below.

The data set has as its system TGF-β signaling (PAI-1 promoter-luciferase in HepG2 cells). Nature of the data set: Assay 1: PAI-1 promoter luciferase reporter assay in HepG2 cells exposed to TGF-β.

Read-outs that look alike come from different tables or passages of the source.

Experimental: The assay was performed in HepG2 cells stably transfected with the PAI-1 promoter (known to be a strong TGF-β responsive promoter) linked to a luciferase (firefly) reporter gene. The compounds were selected on their ability to inhibit luciferase activity in cells exposed to TGF-β. In addition cells were transfected with a second luciferase (Renilla) gene which was not driven by a TGF-β responsive promoter and was used as a toxicity control.
(96 well) microplates are seeded, using a multidrop apparatus, with the stably transfected cell line at a concentration of 35000 cells per well in 200 μl of serum-containing medium. These plates are placed in a cell incubator.
18 to 24 hours later (Day 2), cell-incubation procedure is launched. Cells are incubated with TGF-β and a candidate compound at concentrations in the range 50 nM to 10 μM (final concentration of DMSO 1%). The final concentration of TGF-β (rhTGFβ-1) used in the test is 1 ng/mL. […] The final volume of the test reaction is 150 μl. Each well contains only one candidate compound and its effect on the PAI-1 promoter is monitored.
Columns 11 and 12 are employed as controls. Column 11 contains 8 wells in which the cells are incubated in the presence of TGF-β, without a candidate compound. Column 11 is used to determine the ‘reference TGF-β induced firefly luciferase value’ against which values measured in the test wells (to quantify inhibitory activity) may be compared. In wells A12 to D12, cells are grown in medium without TGF-β. […]
12 to 18 hours later (day 3), the luciferase quantification procedure is launched. […] Following agitation (15 to 30 mins), luciferase activities of the plates are read in a dual-injector luminometer (BMG lumistar). For this purpose, 50 μl of luciferase assay reagent and 50 μl of ‘Stop & Glo’ buffer are injected sequentially to quantify the activities of both luciferases. […] For each of the compounds tested, a concentration response curve is constructed from which an IC50 value can be determined graphically.

For the molecule `O=C1C=CCC1` [CPO, Cyclopentenone, reference compound], the “firefly and renilla luciferase activities relative to those obtained in column 11 (TGF-β only)” value (500 μM CPO in presence of TGF-β, toxicity control wells E12 to H12) is “around 50%”.

As for `Cc1cccc(-c2n[nH]cc2-c2ccc3ncccc3n2)n1` [Example 2], under “read-out: IC50 value in Assay 1 (inhibition of TGF-β induced firefly luciferase activity), HepG2 cells stably transfected with PAI-1 promoter-luciferase, rhTGFβ-1 1 ng/mL, 1% DMSO”, the IC50 was ~50 nM.

In the case of `c1ccc(-c2n[nH]cc2-c2ccc3ncccc3n2)nc1` [Example 1, 2-(3-Pyridin-2-yl-1H-pyrazol-4-yl)-1,5-naphthyridine], the IC50 (Homo sapiens, HepG2, read-out: IC50 value in Assay 1 (inhibition of TGF-β induced firefly luciferase activity)) is ~50 nM.
